Measurements reported in patent US20230085307A1, “PYRIDAZINONE COMPOUND AND HERBICIDE” (NISSAN CHEMICAL CORPORATION, priority 2019, published 2023).

How the values were obtained:
late watergrass [1] = test: Test Example 1: herbicidal activity, application before weed generation under submerged conditions (Table 16, symbol A); assay type: in vivo, late watergrass (Echinochloa oryzicola); conditions: 320 g/ha applied herbicide
Outline: (§1)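 Submerged Wagner pots (alluvial soil, 4 cm water) sown with weed seeds and planted with 2.5-leaf rice seedlings; emulsifiable concentrate diluted in water applied to water surface on sowing day. Held in greenhouse at 25-30 °C; injury scored 0-5 by herbicidal rate after three weeks.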

Japanese bulrush [2] = test: Test Example 1: herbicidal activity, application before weed generation under submerged conditions (Table 16, symbol B); assay type: in vivo, Japanese bulrush (Schoenoplectus juncoides); conditions: 320 g/ha applied herbicide
Outline: as §1

oval-leafed pondweed [3] = test: Test Example 1: herbicidal activity, application before weed generation under submerged conditions (Table 16, symbol C); assay type: in vivo, oval-leafed pondweed (Monochoria vaginalis); conditions: 320 g/ha applied herbicide
Outline: as §1

late watergrass [4] = test: Test Example 2: herbicidal activity, application during weed generation under submerged conditions (Table 17, symbol A); assay type: in vivo, late watergrass (Echinochloa oryzicola); conditions: AAH 320 g/ha; application during weed generation, submerged conditions
Outline: (§2)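 Wagner pot, alluvial soil, 4 cm flood; mixed sowing of all species; greenhouse 25° C.–30° C. Emulsifiable formulation, water-diluted to predetermined dose, applied to paddy water at 1–2 leaf stage. Effect rated at 3 wk using the earlier test's scoring criteria.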

Japanese bulrush [5] = test: Test Example 2: herbicidal activity, application during weed generation under submerged conditions (Table 17, symbol B); assay type: in vivo, Japanese bulrush (Schoenoplectus juncoides); conditions: AAH 320 g/ha; application during weed generation, submerged conditions
Outline: as §2

oval-leafed pondweed [6] = test: Test Example 2: herbicidal activity, application during weed generation under submerged conditions (Table 17, symbol C); assay type: in vivo, oval-leafed pondweed (Monochoria vaginalis); conditions: AAH 320 g/ha; application during weed generation, submerged conditions
Outline: as §2

barnyard grass [7] = test: Test Example 3: herbicidal effect by foliage application, Wagner pot (Table 18, symbol H); assay type: in vivo, barnyard grass (Echinochloa crus-galli); conditions: amount of applied herbicide 320 g/ha
Outline: (§3)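 Plants were sown in alluvial soil held under 0.1–0.5 cm standing water and grown 14 days in a greenhouse at 25–30 °C. An emulsifiable formulation, water-diluted to the set dose, was then sprayed onto the foliage, and effects were scored three weeks later using previously defined criteria.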

Chinese sprangletop = test: Test Example 3: herbicidal effect by foliage application, Wagner pot (Table 18, symbol D); assay type: in vivo, chinese sprangletop (Leptochloa chinensis); conditions: amount of applied herbicide 320 g/ha
Outline: as §3

rice flat sedge = test: Test Example 3: herbicidal effect by foliage application, Wagner pot (Table 18, symbol E); assay type: in vivo, rice flat sedge (Cyperus iria); conditions: amount of applied herbicide 320 g/ha
Outline: as §3

southern crabgrass = test: Test Example 4: herbicidal effect by soil treatment (Table 19, symbol F); assay type: in vivo, southern crabgrass (Digitaria ciliaris); conditions: amount of applied herbicide 320 g/ha
Outline: (§4)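 Herbicidal effect was rated 3 weeks after treatment, using the scoring criteria of an earlier test. The compound, formulated as an emulsion and diluted in water to a set herbicide amount, had been sprayed uniformly on soil over freshly sown seeds. Growth took place in a greenhouse at 25° C. to 30° C.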

green foxtail = test: Test Example 4: herbicidal effect by soil treatment (Table 19, symbol G); assay type: in vivo, green foxtail (Setaria viridis); conditions: amount of applied herbicide 320 g/ha
Outline: as §4

barnyard grass [8] = test: Test Example 4: herbicidal effect by soil treatment (Table 19, symbol H); assay type: in vivo, barnyard grass (Echinochloa crus-galli); conditions: amount of applied herbicide 320 g/ha
Outline: as §4

wild oat = test: Test Example 4: herbicidal effect by soil treatment (Table 19, symbol I); assay type: in vivo, wild oat (Avena fatua); conditions: amount of applied herbicide 320 g/ha
Outline: as §4

blackgrass = test: Test Example 4: herbicidal effect by soil treatment (Table 19, symbol J); assay type: in vivo, blackgrass (Alopecurus myosuroides); conditions: amount of applied herbicide 320 g/ha
Outline: as §4

Italian ryegrass = test: Test Example 4: herbicidal effect by soil treatment (Table 19, symbol K); assay type: in vivo, Italian ryegrass (Lolium multiflorum); conditions: amount of applied herbicide 320 g/ha
Outline: as §4

windgrass = test: Test Example 4: herbicidal effect by soil treatment (Table 19, symbol L); assay type: in vivo, windgrass (Apera spica-venti); conditions: amount of applied herbicide 320 g/ha
Outline: as §4

velvetleaf = test: Test Example 4: herbicidal effect by soil treatment (Table 19, symbol M); assay type: in vivo, velvetleaf (Abutilon theophrasti); conditions: amount of applied herbicide 320 g/ha
Outline: as §4

redroot pigweed = test: Test Example 4: herbicidal effect by soil treatment (Table 19, symbol N); assay type: in vivo, redroot pigweed (Amaranthus retroflexus); conditions: amount of applied herbicide 320 g/ha
Outline: as §4

lambsquarters = test: Test Example 4: herbicidal effect by soil treatment (Table 19, symbol O); assay type: in vivo, lambsquarters (Chenopodium album); conditions: amount of applied herbicide 320 g/ha
Outline: as §4

chickweed = test: Test Example 4: herbicidal effect by soil treatment (Table 19, symbol P); assay type: in vivo, common chickweed (Stellaria media); conditions: amount of applied herbicide 320 g/ha
Outline: as §4

persian speedwell = test: Test Example 4: herbicidal effect by soil treatment (Table 19, symbol R); assay type: in vivo, Persian speedwell (Veronica persica); conditions: amount of applied herbicide 320 g/ha
Outline: as §4

CCCC(=O)Oc1c(C)nn(C)c(=O)c1-c1c(-c2ccc(Cl)cc2F)sc2ccc(F)cc12 [2-349]
Herbicidal effect on A: late watergrass (grade 0-5) (late watergrass [1]): 3 (Herbicidal rate of 40% or more and less than 70%) | Herbicidal effect on B: Japanese bulrush (grade 0-5) (Japanese bulrush [2]): 0 (Herbicidal rate of 5% or less (almost no effect)) | Herbicidal effect on C: oval-leafed pondweed (grade 0-5) (oval-leafed pondweed [3]): 0 (Herbicidal rate of 5% or less (almost no effect)) | herbicidal effect rating, A: late watergrass (late watergrass [4]): 3 (Herbicidal rate of 40% or more and less than 70%) | herbicidal effect rating, B: Japanese bulrush (Japanese bulrush [5]): 3 (Herbicidal rate of 40% or more and less than 70%) | herbicidal effect rating, C: oval-leafed pondweed (oval-leafed pondweed [6]): 3 (Herbicidal rate of 40% or more and less than 70%) | herbicidal effect on H: barnyard grass (barnyard grass [7]): 5 (Herbicidal rate of 90% or more (almost completely withered)) | herbicidal effect on D: Chinese sprangletop (Chinese sprangletop): 5 (Herbicidal rate of 90% or more (almost completely withered)) | herbicidal effect on E: rice flat sedge (rice flat sedge): 4 (Herbicidal rate of 70% or more and less than 90%) | herbicidal effect on F: southern crabgrass (southern crabgrass): 0 (Herbicidal rate of 5% or less (almost no effect)) | herbicidal effect on G: green foxtail (green foxtail): 0 (Herbicidal rate of 5% or less (almost no effect)) | herbicidal effect on H: barnyard grass (barnyard grass [8]): 0 (Herbicidal rate of 5% or less (almost no effect)) | herbicidal effect on I: wild oat (wild oat): 0 (Herbicidal rate of 5% or less (almost no effect)) | herbicidal effect on J: blackgrass (blackgrass): 0 (Herbicidal rate of 5% or less (almost no effect)) | herbicidal effect on K: Italian ryegrass (Italian ryegrass): 4 (Herbicidal rate of 70% or more and less than 90%) | herbicidal effect on L: windgrass (windgrass): 0 (Herbicidal rate of 5% or less (almost no effect)) | herbicidal effect on M: velvetleaf (velvetleaf): 0 (Herbicidal rate of 5% or less (almost no effect)) | herbicidal effect on N: redroot pigweed (redroot pigweed): 0 (Herbicidal rate of 5% or less (almost no effect)) | herbicidal effect on O: lambsquarters (lambsquarters): 0 (Herbicidal rate of 5% or less (almost no effect)) | herbicidal effect on P: chickweed (chickweed): 3 (Herbicidal rate of 40% or more and less than 70%) | herbicidal effect on R: persian speedwell (persian speedwell): 4 (Herbicidal rate of 70% or more and less than 90%)
